Test results: PMC10945555, “Improving Activity of New Arylurea Agents against Multidrug-Resistant and Biofilm-Producing Staphylococcus epidermidis” (ACS Medicinal Chemistry Letters, 2024)
Values after ≈ are worked out from the molar mass of the structure shown. Where two headings read alike, the source gives them in different places.

What was measured:
Assay type in all cases: cell-based
[1] = system: Staphylococcus epidermidis ATCC 35984; assay: MIC, broth microdilution, MDR/BPSE reference strain; settings: Staphylococcus epidermidis, ATCC35984, read-out: MIC MDR/BPSE, Staphylococcus epidermidis ATCC 35984
Excerpt: (§1) These strains included susceptible, multidrug-resistant, and biofilm-producing strains of S. epidermidis and S. aureus (MSSE, MDR/BPSE, and MDR/BPSA, respectively). The cornerstone antibiotic linezolid served as a positive control (Table 1). The impact of structural modifications at the aryloxy fragment and the aromatic moiety bound to the propyl linker on the inhibitory activity was initially investigated. […] Further optimization focused on evaluating the impact of the type of substituent and its position on the arylsulfonamide fragment’s activity.
(§2) 2 Biological assay protocols
(§3) Microbiological tests were carried out under aseptic conditions in a laminar chamber of the 2nd […]
(§4) (BioTectum 1.2, Alchem Poland). The assessment of antimicrobial activity was carried out for final compounds in the form of free bases, soluble in DMSO (Merck, Germany), at the initial […]
(§5) concentration of 1 mg/mL. […]
(§6) were provided by Cayman Chemical, USA.
(§7) The activity of all newly synthesized compounds was tested in vitro on a panel of selected reference strains from the American Type Culture Collection (ATCC) of Gram-positive […]
(§8) 2.2 Effect of evaluated compounds on planktonic cells
(§9) The susceptibility of three reference bacterial strains (Staphylococcus epidermidis ATCC […]
(§10) Table S1) and 81 clinical MDR S. epidermidis (Table S2) to the tested compounds was assessed by determining the MIC value (Minimal Inhibitory Concentration) by microdilution in a liquid medium in 96-well flat-bottom cell culture plates (Nest Biotechnology Scientific, USA). The antibacterial properties of the compo unds were tested in the concentration range from 50 µg/mL to 0.1 µg/mL by making a series of double dilutions of the compound in liquid Mueller -Hinton II Broth Cation Adjusted (MHB II, BBL TM, USA) according to the European Committee on […]
(§11) Antimicrobial Susceptibility Testing guidelines (EUCAST).2,3 The determinations were performed twice. The MIC50 and MIC90 values were determined for each of the tested

[2] = system: clinical MDR Staphylococcus epidermidis isolates; assay: MIC, broth microdilution, 81 clinical MDR strains; settings: Staphylococcus epidermidis
Experimental: as §2, §3, §4, §5
were provided by Cayman Chemical, USA. […]
The antibacterial activity of selected compounds was also tested on a panel of 81 unrelated, multidrug -resistant clinical strains of Staphylococcus epidermidis from the own collection of the Department of Pharmaceutical Microbiology of the Jagiellonian University Medical College.
as §8, §9, §10, §11

[3] = system: Staphylococcus aureus ATCC BAA-976; assay: MIC, broth microdilution, MDR/BPSA reference strain; settings: ATCCBAA976; Staphylococcus aureus ATCC BAA-976; read-out: MIC MDR/BPSA
Excerpt: as §1, §2, §3, §4, §5, §6, §7, §8, §9, §10, §11

O=S(=O)(NC1CCN(CCC(Oc2ccc(C(F)(F)F)cc2)c2cccs2)CC1)c1cccc(Br)c1 (centres unmarked) [Compound 18]
MIC [1]: ≤ 0.8 µg/mL | MIC ([2]; clinical strain 1 (Table S2), read-out: MIC): 0.8 µg/mL (≈ 1.33 µM) | MIC ([2]; clinical strain 2 (Table S2), read-out: MIC): 3.12 µg/mL (≈ 5.18 µM) | MIC ([2]; clinical strain 3 (Table S2), read-out: MIC): 6.25 µg/mL (≈ 10.4 µM) | MIC ([2]; clinical strain 4 (Table S2), read-out: MIC): 50 µg/mL (≈ 82.8 µM) | MIC ([2]; clinical strain 5 (Table S2), read-out: MIC): 1.6 µg/mL (≈ 2.65 µM) | MIC ([2]; clinical strain 6 (Table S2), read-out: MIC): 12.5 µg/mL (≈ 20.7 µM) | MIC ([2]; clinical strain 7 (Table S2), read-out: MIC): 25 µg/mL (≈ 41.4 µM) | MIC ([2]; clinical strain 8 (Table S2), read-out: MIC): 3.12 µg/mL (≈ 5.18 µM) | MIC ([2]; clinical strain 9 (Table S2), read-out: MIC): 50 µg/mL (≈ 82.8 µM) | MIC ([2]; clinical strain 10 (Table S2), read-out: MIC): 50 µg/mL (≈ 82.8 µM) | MIC ([2]; clinical strain 11 (Table S2), read-out: MIC): 6.25 µg/mL (≈ 10.4 µM) | MIC ([2]; clinical strain 12 (Table S2), read-out: MIC): 12.5 µg/mL (≈ 20.7 µM) | MIC ([2]; clinical strain 13 (Table S2), read-out: MIC): 12.5 µg/mL (≈ 20.7 µM) | MIC ([2]; clinical strain 14 (Table S2), read-out: MIC): 50 µg/mL (≈ 82.8 µM) | MIC ([2]; clinical strain 15 (Table S2), read-out: MIC): 50 µg/mL (≈ 82.8 µM) | MIC ([2]; clinical strain 16 (Table S2), read-out: MIC): 50 µg/mL (≈ 82.8 µM) | MIC ([2]; clinical strain 17 (Table S2), read-out: MIC): 12.5 µg/mL (≈ 20.7 µM) | MIC ([2]; clinical strain 18 (Table S2), read-out: MIC): 50 µg/mL (≈ 82.8 µM) | MIC ([2]; clinical strain 19 (Table S2), read-out: MIC): 6.25 µg/mL (≈ 10.4 µM) | MIC ([2]; clinical strain 20 (Table S2), read-out: MIC): 3.12 µg/mL (≈ 5.18 µM) | MIC ([2]; clinical strain 21 (Table S2), read-out: MIC): 3.12 µg/mL (≈ 5.18 µM) | MIC ([2]; clinical strain 22 (Table S2), read-out: MIC): 3.12 µg/mL (≈ 5.18 µM) | MIC ([2]; clinical strain 23 (Table S2), read-out: MIC): 0.8 µg/mL (≈ 1.33 µM) | MIC ([2]; clinical strain 24 (Table S2), read-out: MIC): 3.12 µg/mL (≈ 5.18 µM) | MIC ([2]; clinical strain 25 (Table S2), read-out: MIC): 6.25 µg/mL (≈ 10.4 µM) | MIC ([2]; clinical strain 26 (Table S2), read-out: MIC): 50 µg/mL (≈ 82.8 µM) | MIC ([2]; clinical strain 27 (Table S2), read-out: MIC): 0.8 µg/mL (≈ 1.33 µM) | MIC ([2]; clinical strain 28 (Table S2), read-out: MIC): 50 µg/mL (≈ 82.8 µM) | MIC ([2]; clinical strain 29 (Table S2), read-out: MIC): 50 µg/mL (≈ 82.8 µM) | MIC ([2]; clinical strain 30 (Table S2), read-out: MIC): 50 µg/mL (≈ 82.8 µM) | MIC ([2]; clinical strain 31 (Table S2), read-out: MIC): 50 µg/mL (≈ 82.8 µM) | MIC ([2]; clinical strain 32 (Table S2), read-out: MIC): 50 µg/mL (≈ 82.8 µM) | MIC ([2]; clinical strain 33 (Table S2), read-out: MIC): 50 µg/mL (≈ 82.8 µM) | MIC ([2]; clinical strain 34 (Table S2), read-out: MIC): 50 µg/mL (≈ 82.8 µM) | MIC ([2]; clinical strain 35 (Table S2), read-out: MIC): 1.6 µg/mL (≈ 2.65 µM) | MIC ([2]; clinical strain 36 (Table S2), read-out: MIC): 50 µg/mL (≈ 82.8 µM) | MIC ([2]; clinical strain 37 (Table S2), read-out: MIC): 50 µg/mL (≈ 82.8 µM) | MIC ([2]; clinical strain 38 (Table S2), read-out: MIC): 50 µg/mL (≈ 82.8 µM) | MIC ([2]; clinical strain 39 (Table S2), read-out: MIC): 50 µg/mL (≈ 82.8 µM) | MIC ([2]; clinical strain 40 (Table S2), read-out: MIC): 50 µg/mL (≈ 82.8 µM) | MIC ([2]; clinical strain 41 (Table S2), read-out: MIC): 6.25 µg/mL (≈ 10.4 µM) | MIC ([2]; clinical strain 42 (Table S2), read-out: MIC): 1.6 µg/mL (≈ 2.65 µM) | MIC ([2]; clinical strain 43 (Table S2), read-out: MIC): 1.6 µg/mL (≈ 2.65 µM) | MIC ([2]; clinical strain 44 (Table S2), read-out: MIC): 50 µg/mL (≈ 82.8 µM) | MIC ([2]; clinical strain 45 (Table S2), read-out: MIC): 50 µg/mL (≈ 82.8 µM) | MIC ([2]; clinical strain 46 (Table S2), read-out: MIC): 50 µg/mL (≈ 82.8 µM) | MIC ([2]; clinical strain 47 (Table S2), read-out: MIC): 50 µg/mL (≈ 82.8 µM) | MIC ([2]; clinical strain 48 (Table S2), read-out: MIC): 50 µg/mL (≈ 82.8 µM) | MIC ([2]; clinical strain 49 (Table S2), read-out: MIC): 50 µg/mL (≈ 82.8 µM) | MIC ([2]; clinical strain 50 (Table S2), read-out: MIC): 50 µg/mL (≈ 82.8 µM) | MIC ([2]; clinical strain 51 (Table S2), read-out: MIC): 50 µg/mL (≈ 82.8 µM) | MIC ([2]; clinical strain 52 (Table S2), read-out: MIC): 50 µg/mL (≈ 82.8 µM) | MIC ([2]; clinical strain 53 (Table S2), read-out: MIC): 50 µg/mL (≈ 82.8 µM) | MIC ([2]; clinical strain 54 (Table S2), read-out: MIC): 50 µg/mL (≈ 82.8 µM) | MIC ([2]; clinical strain 55 (Table S2), read-out: MIC): 50 µg/mL (≈ 82.8 µM) | MIC ([2]; clinical strain 56 (Table S2), read-out: MIC): 50 µg/mL (≈ 82.8 µM) | MIC ([2]; clinical strain 57 (Table S2), read-out: MIC): 50 µg/mL (≈ 82.8 µM) | MIC ([2]; clinical strain 58 (Table S2), read-out: MIC): 50 µg/mL (≈ 82.8 µM) | MIC ([2]; clinical strain 59 (Table S2), read-out: MIC): 50 µg/mL (≈ 82.8 µM) | MIC ([2]; clinical strain 60 (Table S2), read-out: MIC): 50 µg/mL (≈ 82.8 µM) | MIC ([2]; clinical strain 61 (Table S2), read-out: MIC): 50 µg/mL (≈ 82.8 µM) | MIC ([2]; clinical strain 62 (Table S2), read-out: MIC): 50 µg/mL (≈ 82.8 µM) | MIC ([2]; clinical strain 63 (Table S2), read-out: MIC): 50 µg/mL (≈ 82.8 µM) | MIC ([2]; clinical strain 64 (Table S2), read-out: MIC): 50 µg/mL (≈ 82.8 µM) | MIC ([2]; clinical strain 65 (Table S2), read-out: MIC): 6.25 µg/mL (≈ 10.4 µM) | MIC ([2]; clinical strain 66 (Table S2), read-out: MIC): 3.12 µg/mL (≈ 5.18 µM) | MIC ([2]; clinical strain 67 (Table S2), read-out: MIC): 50 µg/mL (≈ 82.8 µM) | MIC ([2]; clinical strain 68 (Table S2), read-out: MIC): 50 µg/mL (≈ 82.8 µM) | MIC ([2]; clinical strain 69 (Table S2), read-out: MIC): 50 µg/mL (≈ 82.8 µM) | MIC ([2]; clinical strain 70 (Table S2), read-out: MIC): 50 µg/mL (≈ 82.8 µM) | MIC ([2]; clinical strain 71 (Table S2), read-out: MIC): 50 µg/mL (≈ 82.8 µM) | MIC ([2]; clinical strain 72 (Table S2), read-out: MIC): 50 µg/mL (≈ 82.8 µM) | MIC ([2]; clinical strain 73 (Table S2), read-out: MIC): 50 µg/mL (≈ 82.8 µM) | MIC ([2]; clinical strain 74 (Table S2), read-out: MIC): 50 µg/mL (≈ 82.8 µM) | MIC ([2]; clinical strain 75 (Table S2), read-out: MIC): 50 µg/mL (≈ 82.8 µM) | MIC ([2]; clinical strain 76 (Table S2), read-out: MIC): 50 µg/mL (≈ 82.8 µM) | MIC ([2]; clinical strain 77 (Table S2), read-out: MIC): 0.8 µg/mL (≈ 1.33 µM) | MIC ([2]; clinical strain 78 (Table S2), read-out: MIC): 50 µg/mL (≈ 82.8 µM) | MIC ([2]; clinical strain 79 (Table S2), read-out: MIC): 50 µg/mL (≈ 82.8 µM) | MIC ([2]; clinical strain 80 (Table S2), read-out: MIC): 50 µg/mL (≈ 82.8 µM) | MIC ([2]; clinical strain 81 (Table S2), read-out: MIC): 3.12 µg/mL (≈ 5.18 µM) | MIC ([2]; mean of MIC values against clinical MDR-SE isolates, read-out: mean MIC): 35.2 µg/mL (≈ 58.3 µM) | MIC50 ([2]; 81 clinical strains, concentration inhibiting growth of 50% clinical isolates): 50 µg/mL (≈ 82.8 µM) | MIC90 ([2]; 81 clinical strains, concentration inhibiting growth of 90% of clinical isolates): 50 µg/mL (≈ 82.8 µM) | MIC [3]: 50 µg/mL (≈ 82.8 µM)
